Source: paper PMC4368200, “Triclabendazole Sulfoxide Causes Stage-Dependent Embryolethality in Zebrafish and Mouse In Vitro” (PLoS ONE, 2015)
“And” between values parts separate entries of the source, which are not always exact repeats. Equal entries are not always repeated. Where two headings read alike, the source gives them in different places. Marks after values point to notes of the source that are not given here.

Columns and labels:
zebrafish embryos [1] = settings: cited from earlier work
zebrafish embryos [2] = assay: Zebrafish embryo test (ZFET); format: in vivo, Danio rerio; settings: for Lethality / ZFET LOAEC dysmorphogenesis / ZFET LOAEC lethality: 2-50 hpf; for Dysmorphogenic embryos / Morphological score: 50 hpf
Description: The day before the test, adult male and female zebrafish were transferred (1:1) to breeding tanks (Aquaneering, San Diego, California). Artificial plants and marbles were used as spawning substrate. Spawning and fertilization took place within 30 min after the onset of light in the morning. Eggs were collected and extensively cleaned with ISO-standard 7346 water diluted 1:5 using deionized water. Fertilized eggs were selected under a dissection stereomicroscope (Motic SMZ168, Motic China group, LTD., China). The eggs presenting overt anomalies like asymmetries, formation of vesicles or damaged membranes were discarded.
Exposure and evaluation of eggs was performed as described before with slight variations. At 2 hours post-fertilization (hpf) fertilized eggs were selected and transferred to 6-well plates (Greiner Bio-one, Germany). Ten embryos were randomly distributed into wells and filled with 5 mL of freshly prepared test solutions. TCBZ, TCBZSO, ABZ and ABZSO were dissolved in DMSO and subsequently diluted in 0.3x Danieau’s buffer to a final DMSO concentration of 0.05% (v/v). Embryos were incubated at 26 ± 1°C with a dark-light cycle of 10–14 h for 48 h. Embryolethality was determined at 8 hpf on the basis of egg coagulation, at 26 hpf by the absence of tail detachment or somites formation, and at 50 hpf by the absence of heartbeat. Developmental and teratogenic effects were assessed at 50 hpf by the total morphological score described in [32].
The working concentrations for ZFET experiments were 0.1 μM, 0.5 μM, 1 μM, 2.5 μM and 5 μM for TCBZ studies and 0.5 μM, 1 μM, 2.5 μM, 5 μM, 10 μM and 50 μM for TCBZSO. The experiments with ABZ were performed including concentrations of 0.025 μM, 0.05 μM, 0.1 μM, 0.3 μM and 0.5 μM and for ABZSO they included 1 μM, 6 μM, 12 μM, 25 μM and 50 μM.

[3] = cited from earlier work
[4] = system: rat embryos explanted at GD 9.5; assay: Postimplantation whole embryo culture (postWEC); design: species or system Sprague Dawley rats; key to Yolk sac circulation (median): 1 = few/abnormal vessels, 2 = delayed, 3 = complete vascularization; key to Morphological score: sum of structure scores; higher = more advanced differentiation; settings: for Crown-rump length / Morphological score / Somites number / Yolk sac circulation (median) / Dysmorphogenic embryos: 48 h; for postWEC LOAEC: GD 9.5-11.5, 48 h
Description: Nulliparous female rats, which were checked to be in the oestrus phase of the oestrous cycle, were housed with adult males (1:1) for 4 h, considering 2 h of light and 2 h of darkness. Mating was confirmed by the presence of sperm in vaginal smear, and the following 24 h were considered as gestational day 0 (GD 0).
Rat embryos were explanted and evaluated as described before with some variations. Briefly, embryos were explanted at GD 9.5 under sterile conditions. Two embryos were incorporated in flasks filled with 3.5 mL of culture medium which contained 20% of rat serum and 80% of serum mixture (Biochrom AG; Berlin, Germany). TCBZ, TCBZSO, ABZ and ABZSO were dissolved in dimethyl sulfoxide (DMSO; Sigma Aldrich Spain) and added to the culture medium to a final DMSO concentration of 0.1%. Culture flasks were oxygenated at the beginning of the culture with a gas mixture containing 12% O2 and after 38 h with a gas mixture containing 50% O2. Embryos were cultured at a temperature of 38°C, under rotation at a speed of 25 rpm (Noria R, Ovan Spain) for 48 h. After this period, embryos presenting yolk sac circulation and heartbeat were considered alive and were selected for further evaluation. The yolk sac circulation was evaluated according to the level of formation of blood vessels, giving a score of 1 in the cases in which few vessels were observed or the vascularization was abnormal, a score of 2 when a delay in vascularization was observed and 3 for complete vascularization, as previously described in [35]. Growth evaluation was assessed by crown-rump length and differentiation was evaluated by counting the number of somites and the morphological score. This score is the sum of the scores given to several embryonic structures depending on their differentiation stage, corresponding higher values with higher stages of differentiation. Furthermore, the percentage of dysmorphogenesis was calculated according to [36].
For the postWEC experiments, the selected concentrations were 140 μM, 278 μM and 556 μM for TCBZ and 267 μM, 666 μM and 932 μM for TCBZSO. The tested concentrations for ABZ analysis were 0.4 μM, 1.1 μM and 1.9 μM and for ABZSO were 3.4 μM, 9 μM, 12 μM, 14 μM and 16 μM.

rat whole embryo culture = system: rat whole embryo culture; design: method as in PMID 22652462; settings: ref 16; cited from earlier work

CCC[S+]([O-])c1ccc2[nH]c(NC(=O)OC)nc2c1 (centres unmarked) [ABZSO, albendazole sulfoxide]
ZFET LOAEC, in vitro literature (zebrafish embryos [1]; ref 19): Non observed adverse effects | ZFET LOAEC, in vitro literature (zebrafish embryos [1]; ref 20): 6.8 µM | Lethality (zebrafish embryos [2]; 1 μM): 0% | Dysmorphogenic embryos (zebrafish embryos [2]; 1 μM): 0% | Morphological score (zebrafish embryos [2]; 1 μM): 36.0 ± 0.0 | Frequency of dysmorphogenesis: Cardiac oedema (zebrafish embryos [2]; 6µM): 3.3% | Lethality (zebrafish embryos [2]; 6 μM): 0% | Dysmorphogenic embryos (zebrafish embryos [2]; 6 μM): 3.3% | Morphological score (zebrafish embryos [2]; 6 μM): 35.7 ± 0.9 | Frequency of dysmorphogenesis: Cardiac oedema (zebrafish embryos [2]; 12 µM): 10% | Lethality (zebrafish embryos [2]; 12 μM): 0% | Dysmorphogenic embryos (zebrafish embryos [2]; 12 μM): 10% | Morphological score (zebrafish embryos [2]; 12 μM): 35.5 ± 0.6 | Frequency of dysmorphogenesis: Brain necrosis (zebrafish embryos [2]; 25µM): 100% | Frequency of dysmorphogenesis: Cardiac oedema (zebrafish embryos [2]; 25µM): 100% | Frequency of dysmorphogenesis: Developmental delay (zebrafish embryos [2]; 25µM): 100% | Frequency of dysmorphogenesis: Eye pigmentation (zebrafish embryos [2]; 25µM): 100% | Frequency of dysmorphogenesis: Head-body pigmentation (zebrafish embryos [2]; 25µM): 100% | Frequency of dysmorphogenesis: Movement (zebrafish embryos [2]; 25µM): 100% | Lethality (zebrafish embryos [2]; 25 μM): 13% | Dysmorphogenic embryos (zebrafish embryos [2]; 25 μM): 100% and 100 ^* % | Morphological score (zebrafish embryos [2]; 25 μM): 18.0 ± 0.0 | Lethality (zebrafish embryos [2]; 50 μM): 100% and 100 ^* % | ZFET LOAEC dysmorphogenesis (zebrafish embryos [2]): 25 µM | ZFET LOAEC lethality (zebrafish embryos [2]): 50 µM | Plasma concentrations at teratogenic doses ([3]; reviewed and transformed to μM by 16): 12.8 ([47]; reviewed and transformed to μM by [16]) | Crown-rump length ([4]; 3.4 μM): 3.6 ± 0.2 mm | Morphological score ([4]; 3.4 μM): 38.5 ± 2.1 | Somites number ([4]; 3.4 μM): 26.9 ± 1.6 | Yolk sac circulation (median) ([4]; 3.4 μM): 3.0 | Frequency of dysmorphogenesis: Branchial bars ([4]; 9 µM): 23.1% | Frequency of dysmorphogenesis: Caudal part ([4]; 9 µM): 7.7% | Frequency of dysmorphogenesis: Flexion ([4]; 9 µM): 7.7% | Frequency of dysmorphogenesis: Heart ([4]; 9 µM): 7.7% | Frequency of dysmorphogenesis: Subcutaneous blisters ([4]; 9 µM): 30.8% | Frequency of dysmorphogenesis: Yolk sac ([4]; 9 µM): 7.7% | Crown-rump length ([4]; 9 μM): 3.4 ± 0.3 mm | Dysmorphogenic embryos ([4]; 9 μM): 30.8 ^* % | Morphological score ([4]; 9 μM): 35.8 ± 5.2 | Somites number ([4]; 9 μM): 25.0 ± 2.8 | Yolk sac circulation (median) ([4]; 9 μM): 3.0 | Frequency of dysmorphogenesis: Branchial bars ([4]; 12 µM): 10% | Frequency of dysmorphogenesis: Head ([4]; 12 µM): 40% | Frequency of dysmorphogenesis: Subcutaneous blisters ([4]; 12 µM): 40% | Crown-rump length ([4]; 12 μM): 3.6 ± 0.2 mm | Dysmorphogenic embryos ([4]; 12 μM): 40 ^* % | Morphological score ([4]; 12 μM): 38.6 ± 1.2 | Somites number ([4]; 12 μM): 25.5 ± 2.0 | Yolk sac circulation (median) ([4]; 12 μM): 3.0 | Frequency of dysmorphogenesis: Branchial bars ([4]; 14 µM): 63.6% | Frequency of dysmorphogenesis: Caudal part ([4]; 14 µM): 36.4% | Frequency of dysmorphogenesis: Flexion ([4]; 14 µM): 9.1% | Frequency of dysmorphogenesis: Head ([4]; 14 µM): 36.4% | Frequency of dysmorphogenesis: Optic vesicles ([4]; 14 µM): 9.1% | Frequency of dysmorphogenesis: Otic vesicles ([4]; 14 µM): 36.4% | Frequency of dysmorphogenesis: Subcutaneous blisters ([4]; 14 µM): 54.5% | Frequency of dysmorphogenesis: Yolk sac ([4]; 14 µM): 18.2% | Crown-rump length ([4]; 14 μM): 3.4 ± 0.2 mm | Dysmorphogenic embryos ([4]; 14 μM): 72.7 ^* % | Morphological score ([4]; 14 μM): 29.7 ± 6.6 | Somites number ([4]; 14 μM): 22.9 ± 1.6 | Yolk sac circulation (median) ([4]; 14 μM): 2.0 ^* | Frequency of dysmorphogenesis: Branchial bars ([4]; 16 µM): 100% | Frequency of dysmorphogenesis: Caudal part ([4]; 16 µM): 72.7% | Frequency of dysmorphogenesis: Flexion ([4]; 16 µM): 63.6% | Frequency of dysmorphogenesis: Head ([4]; 16 µM): 72.7% | Frequency of dysmorphogenesis: Heart ([4]; 16 µM): 45.5% | Frequency of dysmorphogenesis: Limbs ([4]; 16 µM): 18.2% | Frequency of dysmorphogenesis: Optic vesicles ([4]; 16 µM): 27.3% | Frequency of dysmorphogenesis: Otic vesicles ([4]; 16 µM): 45.5% | Frequency of dysmorphogenesis: Subcutaneous blisters ([4]; 16 µM): 45.5% | Frequency of dysmorphogenesis: Yolk sac ([4]; 16 µM): 63.6% | Crown-rump length ([4]; 16 μM): 3.1 ± 0.6 mm | Dysmorphogenic embryos ([4]; 16 μM): 100 ^* % | Morphological score ([4]; 16 μM): 21.8 ± 6.7 | Somites number ([4]; 16 μM): 19.3 ± 2.4 | Yolk sac circulation (median) ([4]; 16 μM): 1.0 ^* | postWEC LOAEC [4]: 9 µM | postWEC LOAEC, in vitro literature (rat whole embryo culture): 17.7 [16] μM

CCCSc1ccc2nc(NC(=O)OC)[nH]c2c1 [ABZ, methyl-5-(propylthio)-2-benzimidazole-carbamate]
ZFET LOAEC, in vitro literature (zebrafish embryos [1]; ref 19, 20): 0.3 [19, 20] μM | Lethality (zebrafish embryos [2]; 0.025 μM): 7% | Dysmorphogenic embryos (zebrafish embryos [2]; 0.025 μM): 0% | Morphological score (zebrafish embryos [2]; 0.025 μM): 36.0 ± 0.0 | Frequency of dysmorphogenesis: Cardiac oedema (zebrafish embryos [2]; 0.05 µM): 3.3% | Lethality (zebrafish embryos [2]; 0.05 μM): 0% | Dysmorphogenic embryos (zebrafish embryos [2]; 0.05 μM): 3.3% | Morphological score (zebrafish embryos [2]; 0.05 μM): 35.9 ± 0.2 | Frequency of dysmorphogenesis: Cardiac oedema (zebrafish embryos [2]; 0.1 µM): 2.5% | Lethality (zebrafish embryos [2]; 0.1 μM): 0% | Dysmorphogenic embryos (zebrafish embryos [2]; 0.1 μM): 2.5% | Morphological score (zebrafish embryos [2]; 0.1 μM): 35.9 ± 0.2 | Frequency of dysmorphogenesis: Cardiac oedema (zebrafish embryos [2]; 0.3 µM): 72% | Frequency of dysmorphogenesis: Developmental delay (zebrafish embryos [2]; 0.3 µM): 72% | Frequency of dysmorphogenesis: Eye pigmentation (zebrafish embryos [2]; 0.3 µM): 16% | Frequency of dysmorphogenesis: Head-body pigmentation (zebrafish embryos [2]; 0.3 µM): 40% | Frequency of dysmorphogenesis: Movement (zebrafish embryos [2]; 0.3 µM): 32% | Lethality (zebrafish embryos [2]; 0.3 μM): 17 ^* % | Dysmorphogenic embryos (zebrafish embryos [2]; 0.3 μM): 72 ^* % | Morphological score (zebrafish embryos [2]; 0.3 μM): 25.5 ± 2.1 | Lethality (zebrafish embryos [2]; 0.5 μM): 100% and 100 ^* % | ZFET LOAEC dysmorphogenesis (zebrafish embryos [2]): 0.3 µM | ZFET LOAEC lethality (zebrafish embryos [2]): 0.3 µM | Plasma concentrations at teratogenic doses ([3]; reviewed and transformed to μM by 13): 0.94 ([47]; reviewed and transformed to μM by [13]) | Crown-rump length ([4]; 0.4 μM): 3.5 ± 0.1 mm | Dysmorphogenic embryos ([4]; 0.4 μM): 0% | Morphological score ([4]; 0.4 μM): 38.9 ± 0.6 | Somites number ([4]; 0.4 μM): 25.8 ± 1.9 | Yolk sac circulation (median) ([4]; 0.4 μM): 3.0 | Frequency of dysmorphogenesis: Branchial bars ([4]; 1.1 µM): 50% | Frequency of dysmorphogenesis: Heart ([4]; 1.1 µM): 12.5% | Frequency of dysmorphogenesis: Subcutaneous blisters ([4]; 1.1 µM): 50% | Frequency of dysmorphogenesis: Yolk sac ([4]; 1.1 µM): 25% | Crown-rump length ([4]; 1.1 μM): 3.2 ± 0.2 mm | Dysmorphogenic embryos ([4]; 1.1 μM): 50 ^* % | Morphological score ([4]; 1.1 μM): 30.8 ± 2.1 | Somites number ([4]; 1.1 μM): 23.9 ± 1.1 | Yolk sac circulation (median) ([4]; 1.1 μM): 3.0 | Frequency of dysmorphogenesis: Branchial bars ([4]; 1.9 µM): 100% | Frequency of dysmorphogenesis: Caudal part ([4]; 1.9 µM): 37.5% | Frequency of dysmorphogenesis: Flexion ([4]; 1.9 µM): 12.5% | Frequency of dysmorphogenesis: Head ([4]; 1.9 µM): 62.5% | Frequency of dysmorphogenesis: Heart ([4]; 1.9 µM): 37.5% | Frequency of dysmorphogenesis: Subcutaneous blisters ([4]; 1.9 µM): 37.5% | Frequency of dysmorphogenesis: Yolk sac ([4]; 1.9 µM): 75% | Crown-rump length ([4]; 1.9 μM): 2.9 ± 0.4 mm | Dysmorphogenic embryos ([4]; 1.9 μM): 100 ^* % | Morphological score ([4]; 1.9 μM): 26.4 ± 5.2 | Somites number ([4]; 1.9 μM): 21.9 ± 4.5 | Yolk sac circulation (median) ([4]; 1.9 μM): 1.0 ^* | postWEC LOAEC [4]: 1.1 µM | postWEC LOAEC, in vitro literature (rat whole embryo culture): 3.7 [16] μM
